US8790695B2, “Medicinal carriers, and preparation method and uses thereof” (China Medical University, priority 2012, dated 2014)

Key:
Helicobacter pylori [1] = conditions: infected mice, fed 30 mg/kg amoxicillin once daily for 10 days
From the text: Small black mice were fed with a broth containing 1.0×10^9 CFU/ml Helicobacter pylori continually for 6 times in 2 weeks, to establish a Helicobacter pylori-infected animal model. The mice were fasted one night before fed with Helicobacter pylori, to decrease the mucus in the stomach, and thereby, increase the probability of infection. Then, the Helicobacter pylori-infected mice (6 mice each group) were fed with (a) the nano medicinal carrier obtained from example 1 (2) (control group); (b) 30 mg/kg amoxicillin; and (c) nano medicinal carrier (the concentration of amoxicillin, 30 mg/kg) obtained from example 1 (4) once daily for 10 days. Then, the mice were sacrificed, and the tissue in the stomach was taken off to conduct the colony number experiment.

Helicobacter pylori [2] = conditions: stomach tissue of infected mice, 37° C. for 12 hours
From the text: Small black mice were fed with a broth containing 1.0×10^9 CFU/ml Helicobacter pylori continually for 6 times in 2 weeks, to establish a Helicobacter pylori-infected animal model. The mice were fasted one night before fed with Helicobacter pylori, to decrease the mucus in the stomach, and thereby, increase the probability of infection. Then, the Helicobacter pylori-infected mice (6 mice each group) were fed with (a) the nano medicinal carrier obtained from example 1 (2) (control group); (b) 30 mg/kg amoxicillin; and (c) nano medicinal carrier (the concentration of amoxicillin, 30 mg/kg) obtained from example 1 (4) once daily for 10 days.
Campylobacter-like organism assay (CLO assay) was conducted to evaluate the effect of nano medicinal carrier on treating the Helicobacter pylori-infected mice. The internal side of the stomach tissue of the Helicobacter pylori-infected mice was touch with CLO gel and compressed, the tissue was incubated at 37° C. for 12 hours, and the variation of the color of the CLO gel was observed. The CLO gel without Helicobacter pylori (contacted with deionized water) is a yellow color. The CLO gel with a little of Helicobacter pylori is a yellow-orange color. The CLO gel with a lot of Helicobacter pylori is a red color. A darker color represents a higher amount of Helicobacter pylori.

CC1(C)S[C@@H]2[C@H](NC(=O)[C@H](N)c3ccc(O)cc3)C(=O)N2[C@H]1C(=O)O [amoxicillin solution, amoxicillin]
The colony number of Helicobacter pylori in the stomach tissue of the mice (Helicobacter pylori [1]): 316.9 ± 30.5
color of the CLO gel (darker color = higher amount of Helicobacter pylori) (Helicobacter pylori [2]): red color
